The source of these data is US4212939A, “Substrate solution for carboxylic ester hydrolase determination” (The University of Alabama, priority 1977, dated 1980).

Assay [1] concerns the target T1, porcine pancreatic lipase (Sus scrofa, UniProt P00591).
T1 sequence (P00591 1-450): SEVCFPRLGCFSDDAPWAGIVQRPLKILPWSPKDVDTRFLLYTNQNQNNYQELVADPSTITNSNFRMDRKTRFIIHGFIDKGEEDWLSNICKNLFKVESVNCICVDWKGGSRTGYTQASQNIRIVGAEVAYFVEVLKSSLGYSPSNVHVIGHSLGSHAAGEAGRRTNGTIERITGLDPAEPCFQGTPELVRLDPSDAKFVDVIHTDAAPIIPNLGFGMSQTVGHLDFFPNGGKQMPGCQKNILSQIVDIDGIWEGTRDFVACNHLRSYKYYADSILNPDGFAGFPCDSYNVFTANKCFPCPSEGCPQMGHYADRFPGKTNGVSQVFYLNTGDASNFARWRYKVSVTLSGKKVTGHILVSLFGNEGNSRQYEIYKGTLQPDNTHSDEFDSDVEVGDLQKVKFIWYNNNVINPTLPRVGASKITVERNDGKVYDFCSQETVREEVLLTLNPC
Description: Activation of ester hydrolase in the vinyl ester reagent system (ADH/NADH coupled, 340 nm). In kind it is biochemical. Particulars: for activation of porcine pancreatic lipase by quaternary ammonium compound: in the absence of bile salts; for activation of porcine pancreatic lipase by bile salt: vinyl omega-phenyl octanoate as substrate, sodium taurodeoxycholate zero to 25 mM, sodium cholate zero to 10 mM, sodium chenodeoxycholate zero to 15 mM. The text has this:
(§1) In accordance with the preferred embodiments of this invention, we prefer to carry out the analysis of carboxylic acid ester hydrolase by admixing an unknown, suspected of containing this enzyme with a reagent system wherein first a vinyl ester of a carboxylic acid is hydrolyzed by the enzyme into the carboxylic acid and unstable vinyl alcohol. As a second step, the vinyl alcohol isomerizes to acetaldehyde. This sequence of conversions is indicated diagrammatically as follows: [drawing 1] The acetaldehyde of reaction (2) may be detected by a variety of means known to the prior art. For example, enzymatic methods are illustrated below in reactions (3a) and (3b), and involve monitoring the disappearance (3a) or appearance (3b) of NADH by measuring its absorbance or fluorescence at suitable wavelengths. The velocity of reactions (3a) or (3b) may then be equated with reaction (1) when the components of the mixture are all in sufficient excess so that only the ester hydrolase activity is limiting. Chemical methods (3c) may include any nonenzymatic means for the quantitative analysis of acetaldehyde. [formula]
(§2) The range of concentrations of sodium deoxycholate (or its free acid) is from zero to about 25 mM, but the preferred range is about 15 to 21 mM for porcine pancreatic lipase, crude human pancreas extract, and lipase in human blood serum.
Activation of porcine pancreatic lipase and crude human pancreas extract can also be accomplished with various cationic alkyl and alkyl-aryl quaternary ammonium compounds such as cetyltrimethyl ammonium bromide (CTAB) and cetyldimethylbenzyl ammonium chloride (CDMBAC) in the absence of bile salts. The useful range of CTAB concentrations for activation of porcine pancreatic lipase is from about 4 to 12 mM, but most preferred is from 7 to 9 mM. The useful range of CDMBAC concentrations for activation of porcine pancreatic lipase is from about 2 to 9 mM, but most preferred is about 5 to 9 mM. When used together sodium deoxycholate (or its acid) and either CTAB or CDMBAC activate porcine pancreatic lipase about 10 fold over the activity without these components together. Sodium deoxycholate and CTAB are useful when used together in the ranges of zero to 25 mM and zero to 15 mM, respectively, but the preferred concentrations are 10 mM to 20 mM sodium deoxycholate and 4 mM to 10 mM CTAB. When deoxycholate and CDMBAC are used together for the activation of porcine pancreatic lipase the useful concentrations of deoxycholate are from zero to about 20 mM, but the preferred concentrations are 10 mM to 20 mM deoxycholate and 10 mM to 15 mM CDMBAC.
(2) Buffer Solution. While the method of preparation of the buffer solution is not critical, one method for forming it is as follows: Weigh into a one liter beaker 3.134 gm 1, 1, 3, 3-tetramethyl-1-phenoxy (polyethoxy) butane (n=polydisperse, average 9) and 12.912 gm 1, 1, 3, 3-tetramethyl-1-phenoxy(polyethoxy)n butane, 70% (n=polydisperse, average 30). Add about 800 ml of deionized or glass redistilled water and stir with a magnetic stirring bar until the detergents are dissolved. Add 9.534 gm sodium deoxycholate and continue stirring until dissolved. Then add 25.652 gm tetrasodium pyrophosphate (Na4 P2 O7.10 H2 O) and stir until the crystals dissolve. Add with stirring in approximately five equal portions a total of 231.51 gm of potassium chloride, allowing each portion to almost completely dissolve before adding the next. Stop the stirring when all of the KCl has dissolved. […]

For assay [2], the target named is T2, crude human pancreas extract (human lipase) (Homo sapiens, UniProt P16233).
T2 construct: vinyl ester hydrolysis coupled to ADH/NADH
T2 sequence (P16233 17-465): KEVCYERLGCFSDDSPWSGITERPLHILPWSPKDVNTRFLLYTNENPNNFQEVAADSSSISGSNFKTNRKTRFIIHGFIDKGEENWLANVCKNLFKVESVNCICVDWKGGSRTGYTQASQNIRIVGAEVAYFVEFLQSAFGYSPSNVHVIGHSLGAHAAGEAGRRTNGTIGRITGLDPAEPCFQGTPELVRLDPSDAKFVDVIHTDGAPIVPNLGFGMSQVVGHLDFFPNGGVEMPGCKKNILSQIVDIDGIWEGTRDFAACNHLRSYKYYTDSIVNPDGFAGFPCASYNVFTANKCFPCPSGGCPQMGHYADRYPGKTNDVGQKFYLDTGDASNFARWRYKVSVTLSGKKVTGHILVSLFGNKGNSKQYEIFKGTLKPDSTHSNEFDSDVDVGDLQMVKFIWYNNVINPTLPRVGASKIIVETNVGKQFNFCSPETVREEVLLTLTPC
Described as above. In kind it is biochemical. Particulars: for activation of crude human pancreas extract by quaternary ammonium compound: in the absence of bile salts.
Description: As a second step, the vinyl alcohol isomerizes to acetaldehyde. […] The acetaldehyde of reaction (2) may be detected by a variety of means known to the prior art. For example, enzymatic methods are illustrated below in reactions (3a) and (3b), and involve monitoring the disappearance (3a) or appearance (3b) of NADH by measuring its absorbance or fluorescence at suitable wavelengths. The velocity of reactions (3a) or (3b) may then be equated with reaction (1) when the components of the mixture are all in sufficient excess so that only the ester hydrolase activity is limiting. Chemical methods (3c) may include any nonenzymatic means for the quantitative analysis of acetaldehyde.
The useful range of CTAB concentrations for activation of porcine pancreatic lipase is from about 4 to 12 mM, but most preferred is from 7 to 9 mM. The useful range of CDMBAC concentrations for activation of porcine pancreatic lipase is from about 2 to 9 mM, but most preferred is about 5 to 9 mM. […] Sodium deoxycholate and CTAB are useful when used together in the ranges of zero to 25 mM and zero to 15 mM, respectively, but the preferred concentrations are 10 mM to 20 mM sodium deoxycholate and 4 mM to 10 mM CTAB. When deoxycholate and CDMBAC are used together for the activation of porcine pancreatic lipase the useful concentrations of deoxycholate are from zero to about 20 mM, but the preferred concentrations are 10 mM to 20 mM deoxycholate and 10 mM to 15 mM CDMBAC.
(2) Buffer Solution. While the method of preparation of the buffer solution is not critical, one method for forming it is as follows: Weigh into a one liter beaker 3.134 gm 1, 1, 3, 3-tetramethyl-1-phenoxy (polyethoxy) butane (n=polydisperse, average 9) and 12.912 gm 1, 1, 3, 3-tetramethyl-1-phenoxy(polyethoxy)n butane, 70% (n=polydisperse, average 30). Add about 800 ml of deionized or glass redistilled water and stir with a magnetic stirring bar until the detergents are dissolved. […] Quantitatively transfer the solution to a one liter volumetric flask and add water to the mark. […]

A further assay deals with porcine liver esterase. Described as above. Particulars: for activation of porcine liver esterase by bile salt: vinyl omega-phenyl octanoate as substrate, sodium taurodeoxycholate zero to 25 mM, sodium cholate zero to 10 mM, sodium chenodeoxycholate zero to 15 mM. Format: biochemical.
Excerpt: as §1, §2
(2) Buffer Solution. While the method of preparation of the buffer solution is not critical, one method for forming it is as follows: Weigh into a one liter beaker 3.134 gm 1, 1, 3, 3-tetramethyl-1-phenoxy (polyethoxy) butane (n=polydisperse, average 9) and 12.912 gm 1, 1, 3, 3-tetramethyl-1-phenoxy(polyethoxy)n butane, 70% (n=polydisperse, average 30). Add about 800 ml of deionized or glass redistilled water and stir with a magnetic stirring bar until the detergents are dissolved. Add 9.534 gm sodium deoxycholate and continue stirring until dissolved. Then add 25.652 gm tetrasodium pyrophosphate (Na4 P2 O7.10 H2 O) and stir until the crystals dissolve. Add with stirring in approximately five equal portions a total of 231.51 gm of potassium chloride, allowing each portion to almost completely dissolve before adding the next. Stop the stirring when all of the KCl has dissolved. Add 1.15 gm bovine serum albumin by sprinkling on the liquid surface. When all of the BSA has dissolved, begin stirring again and add more water to bring the volume up to about 950 ml. Adjust the pH to 9.1 with dilute HCl solution. […] Quantitatively transfer the solution to a one liter volumetric flask and add water to the mark. […] After any endogenous acetaldehyde in the reagent has been reduced and the corresponding oxidation of NADH has slowed to the normal blank rate, the absorbance at 340 nm in a 1 cm light path will be approximately 1.5. […]

Assay [3] addresses T1, porcine pancreatic lipase. The note with it: same conditions as glycerol trioleate; cited from earlier work.

As to `CCCCCCCCCCCCCCCC[N+](C)(C)Cc1ccccc1.[Cl-]` [CDMBAC, cetyldimethylbenzyl ammonium chloride], the “activation of porcine pancreatic lipase by quaternary ammonium compound” value in assay [1] is reported as “Activation”. The “activation of crude human pancreas extract by quaternary ammonium compound” value in assay [2] is given as “Activation”. On to `CCCCCCCCCCCCCCCC[N+](C)(C)C.[Br-]` [CTAB, cetyltrimethyl ammonium bromide], for which, in assay [1], the “activation of porcine pancreatic lipase by quaternary ammonium compound” value was “Activation”. In assay [2], the “activation of crude human pancreas extract by quaternary ammonium compound” value is listed as “Activation”. As for `C[C@H](CCC(=O)NCCS(=O)(=O)O)[C@H]1CC[C@H]2[C@@H]3CC[C@@H]4C[C@H](O)CC[C@]4(C)[C@H]3C[C@H](O)[C@]12C` [Sodium taurodeoxycholate, sodium taurodeoxycholate], the “activation of porcine pancreatic lipase by bile salt” value in assay [1] was “slightly activate”. Further, the “activation of porcine liver esterase by bile salt” value in the assay on porcine liver esterase is reported as “slightly activate”.

Take `C[C@H](CCC(=O)O)[C@H]1CC[C@H]2[C@@H]3[C@H](O)C[C@@H]4C[C@H](O)CC[C@]4(C)[C@H]3CC[C@]12C` [sodium chenodeoxycholate]: in assay [1], the “activation of porcine pancreatic lipase by bile salt” value is reported as “slightly activate”. Moreover, the “activation of porcine liver esterase by bile salt” value in the assay with porcine liver esterase is reported as “slightly activate”. For `C[C@H](CCC(=O)O)[C@H]1CC[C@H]2[C@@H]3[C@H](O)C[C@@H]4C[C@H](O)CC[C@]4(C)[C@H]3C[C@H](O)[C@]12C` [sodium cholate], the “activation of porcine pancreatic lipase by bile salt” value in assay [1] is recorded as “slightly activate”. For the same molecule, the “activation of porcine liver esterase by bile salt” value in the assay on porcine liver esterase is reported as “slightly activate”. `C[C@H](CCC(=O)O)[C@H]1CC[C@H]2[C@@H]3CC[C@@H]4C[C@H](O)CC[C@]4(C)[C@H]3C[C@H](O)[C@]12C` [sodium deoxycholate]: the “activation of porcine liver esterase by sodium deoxycholate” value in the assay on porcine liver esterase (concentrations up to about 25 mM) was “only slightly activated”. Also, the “activation of human lipase by deoxycholate alone compared with the combination with CDMBAC” value in assay [2] (deoxycholate concentration about above 4 mM, in the absence of CDMBAC) is on record as “activated to a much greater extent”. For the molecule `C=COC(=O)CCCCCCC/C=C\CCCCCCCC` [vinyl oleate], the “effectiveness as substrate relative to glycerol trioleate” value in assay [3] is given as 29.4%.
